Experimental data: US20200253996A1, “TCTP INHIBITING AGENTS FOR THE TREATMENT OF PROLIFERATIVE DISEASES, INFECTIOUS DISEASES, ALLERGIES, INFLAMMATIONS AND/OR ASTHMA” (UNIVERSITE PARIS-SUD, priority 2017, published 2020)
Where two headings read alike, the source gives them in different places.

Tests used:
[1] = system: human cancer line HCT116 (colorectal carcinoma); assay: Cytotoxic activity on HCT116, 72 hours incubation; format: cell-based; conditions: for % (viability) at 1 μM: HCT116, 1 μM; for % (viability) at 10 μM: HCT116, 10 μM; for antiproliferative activity profile (in words): compared with sertraline; for IC50: Homo sapiens, HCT-116, HCT116, 72 hours incubation, concentration inducing 50% cell death
Description: The cytotoxic activity of the prepared compounds was evaluated on the human cancer line HCT116 (colorectal carcinoma). The selected line was incubated at 37° C. in the presence of one of the prepared compounds added to the culture medium at various concentrations. The inhibitory concentration inducing 50% cell death (IC50) was determined after 72 hours incubation for each compound (Table 1).

[2] = molecular target: T1, TCTP (Homo sapiens, UniProt P13693); assay: Interaction with TCTP by surface plasmon resonance (SPR), Biacore T200; format: binding; conditions: for Kd: TCTP bonded to chip, Biacore T200
T1 sequence (P13693 1-172): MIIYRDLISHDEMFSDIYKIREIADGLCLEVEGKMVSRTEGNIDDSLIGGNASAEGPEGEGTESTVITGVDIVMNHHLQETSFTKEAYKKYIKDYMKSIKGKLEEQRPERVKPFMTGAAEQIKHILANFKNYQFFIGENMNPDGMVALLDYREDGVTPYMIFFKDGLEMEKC
Description: The interaction of the synthesized molecules with TCTP was evaluated by the surface plasmon resonance (SPR) technique using the Biacore T200 apparatus.
A beam of polarized monochromatic light illuminates a glass interface between two media with different refractive indices, since the angle of incidence is greater than the limiting angle, all the light is reflected, a phenomenon known as total internal reflection. There is then no refraction but an electromagnetic component of the light, the evanescent wave propagates over a distance equivalent to its own wavelength, perpendicular to the interface. At the level of the gold leaf located at the interface between the two media, a resonance between the gold plasmons and the evanescent wave is observed, which results in a loss of light energy in the beam reflected at a precise angle called the resonance angle. This angle is sensitive to the refractive index of the medium wherein the evanescent wave propagates.
A continuous measurement of the variations in the angle of refraction is carried out using a micro-refractometer producing a sensorgram that allows the fixation of the molecules injected into the microfluidic cell to be monitored in real time. The resonance signal is expressed in resonance units (RU) and reports what is present at a given time in the microfluidic cell.
Thus, TCTP is bonded to a chip consisting of a layer of dextran on a gold foil, which in turn is placed on a glass plate. This layer is sandwiched between a microfluidic cell and a prism.
The synthesized compounds are passed through the microfluidic cell and their interaction is evaluated through the received SPR signal (Table 1).

[3] = system: p53 protein; assay: Overexpression of p53 protein, Western blot; format: cell-based; conditions: 10 μM
Description: The compound AC014 is capable of inducing overexpression of p53 (FIG. 1).
The Western blot was carried out according to the protocol described in the following article: Amson R, Pece S, Lespagnol A, Vyas R, Mazzarol G, Tosoni D, Colaluca I, Viale G, Rodrigues-Ferreira S, Wynendaele J, Chaloin O, Hoebeke J, Marine J C, Di Fiore P P, Telerman A. Nat Med. 2011 Dec. 11; 18(1):91-9.
The following antibodies were used in the Western blot assay: anti-TCTP antibodies were generated against the whole human-derived TCTP. These polyclonal antibodies were purified by affinity column affinity coupled to TCTP (Agro-Bio). Anti-P53 1C12 mouse antibody (Cell Signaling Technology) was used at a dilution of 1/1000.
Secondary antibodies (antirabbit and antimouse) conjugated to HRP were used at a dilution of 1/5000 to visualize the signals by Western blots.

[4] = system: human HCT116 cells; assay: Inhibition of cell growth, CellTiter Glo assay; conditions: for GI50 / CC50: Homo sapiens
Description: The viability and proliferation of human HCT116 cells is measured using the “CellTiter Glo®” assay (Promega), which is a luminescent measure of the number of living cells. Sertraline and AC070 were tested at 10 concentrations and results are expressed as GI50, TGI, LC50 and IC50 relative to control cells (DMSO).
The CellTiter-Glo® assay is a homogeneous method for determining the number of viable cells in culture based on a quantification of the ATP present, an indicator of metabolically active cells. The homogeneous test procedure involves the addition of a single reagent (the CellTiter-Glo® reagent) directly to the cultured cells in serum-enriched medium.
The results of the test are reported in the following Tables 2 and 3 (Table 2: sertraline and Table 3: AC070): […]

Structure (SMILES)	Kd [2]	affinity for TCTP (in words) [2]	% (viability) at 10 μM [1]	antiproliferative activity profile (in words) [1]	IC50 [1]	other results
CC(=O)NC1CCC(c2cccc(S[C@@H]3OC(COC(C)=O)[C@@H](OC(C)=O)C(OC(C)=O)C3OC(C)=O)c2)c2ccccc21 (stereo in doubt) [AC268-cis, Cis-(2S,3R,4S,5R,6R)-2-((3-((4S)-4-acetamido-1,2,3,4-tetrahydronaphthalen-1-yl)phenyl)thio)-6-(acetoxymethyl)tetrahydro-2H-pyran-3,4,5-triyl triacetate]	170 ± 31 µM	–	–	–	–	–
CC(=O)NC1CCC(c2ccc(Br)cc2)c2ccccc21 (mixture of isomers) [AC088, N-(4-(4-bromophenyl)-1,2,3,4-tetrahydronaphthalen-1-yl)acetamide]	135 ± 37 µM	–	10 μM: 33% (viability)	–	–	–
CC(=O)NC1CCC(c2cc(SC3OC(COC(C)=O)C(OC(C)=O)C(OC(C)=O)C3OC(C)=O)c(C(=O)Nc3cccc4cccnc34)c(S[C@@H]3OC(COC(C)=O)[C@@H](OC(C)=O)C(OC(C)=O)C3OC(C)=O)c2)c2ccccc21 (stereo in doubt) [AC249-cis, Cis-(2S,3R,4S,5R,6R)-2-((5-((4S)-4-acetamido-1,2,3,4-tetrahydronaphthalen-1-yl)-2-(quinolin-8-ylcarbamoyl)-3-(((2R,3S,4R,5S,6S)-3,4,5-triacetoxy-6-(acetoxymethyl)tetrahydro-2H-pyran-2-yl)thio)phenyl)thio)-6-(acetoxymethyl)tetrahydro-2H-pyran-3,4,5-triyl triacetate]	8 ± 2 µM	–	–	–	–	–
COc1ccc2c(c1)CCCC2c1ccc(Cl)c(Cl)c1 (centres unmarked) [AC095, 1-(3,4-dichlorophenyl)-6-methoxy-1,2,3,4-tetrahydronaphthalene]	150 µM	–	10 μM: 40% (viability)	–	–	–
COc1ccc2c(c1)CCCC2c1cccc(Cl)c1 (centres unmarked) [AC101, 1-(3-chlorophenyl)-6-methoxy-1,2,3,4-tetrahydronaphthalene]	145 ± 34 µM	–	–	–	7 ± 0.4 µM	–
CC(=O)N[C@@H]1CC[C@H](c2ccc(C(=O)NC3OC(COC(C)=O)C(OC(C)=O)C(OC(C)=O)C3OC(C)=O)cc2)c2ccccc21 (stereo in doubt) [VM060-cis, Cis-(2R,3R,4S,5R,6R)-2-(4-acetamido-1,2,3,4-tetrahydronaphthalen-1-yl)benzamido)-6-(acetoxy-methyl)tetrahydro-2H-pyran-3,4,5-triyl triacetate]	26 ± 8 µM	–	10 μM: 15% (viability)	–	–	–
CC(=O)N[C@@H]1CC[C@H](c2ccc(C(=O)O)cc2)c2ccccc21 (relative stereo) [VM055-cis, Cis-4-(4-acetamido-1,2,3,4-tetrahydronaphthalen-1-yl)benzoic acid]	176 µM	–	–	–	–	–
CC(=O)NC1CCC(c2ccc3ccccc3c2)c2ccccc21 (centres unmarked) [AC070, N-(1,2,3,4-tetrahydro-[1,2′-binaphthalen]-4-yl) acetamide]	–	–	–	–	–	cytotoxicity compared with sertraline [4]: less cytotoxic than sertraline; activity on cell growth compared with sertraline ([4]; HCT116): slightly less active than sertraline; TGI50 1 ([4]; HCT116, CellTiter Glo, determination 1): 1.48 µM; TGI50 2 ([4]; HCT116, CellTiter Glo, determination 2): 1.44 µM; TGI50 3 ([4]; HCT116, CellTiter Glo, determination 3): 1.41 µM; TGI50 Mean ([4]; HCT116, CellTiter Glo, mean): 1.44 µM; TGI50 Median ([4]; HCT116, CellTiter Glo, median): 1.44 µM; GI50 ([4]; HCT-116, read-out: GI50 1): 0.909 µM; GI50 ([4]; HCT-116, read-out: GI50 2): 0.881 µM; GI50 ([4]; HCT-116, read-out: GI50 3): 0.878 µM; GI50 ([4]; HCT-116, read-out: GI50 Mean): 0.89 µM; GI50 ([4]; HCT-116, read-out: GI50 Median): 0.889 µM; CC50 ([4]; HCT-116, read-out: LC50 1): 2.34 µM; CC50 ([4]; HCT-116, read-out: LC50 2): 2.3 µM; CC50 ([4]; HCT-116, read-out: LC50 3): 2.2 µM; CC50 ([4]; HCT-116, read-out: LC50 Mean): 2.28 µM; CC50 ([4]; HCT-116, read-out: LC50 Median): 2.28 µM; GI50 ([4]; HCT-116, read-out: cell growth inhibition constant GI50): 0.889 µM; CC50 ([4]; HCT-116, read-out: lethal concentration LC50): 2.2 µM

The next lines start with results.

Kd [2]	affinity for TCTP (in words) [2]	Structure (SMILES)	% (viability) at 10 μM [1]	antiproliferative activity profile (in words) [1]	IC50 [1]	other results
123 ± 33 µM	–	c1ccc2c(c1)CCCC2c1ccc2[nH]ccc2c1 (centres unmarked) [AC082, 5-(1,2,3,4-tetrahydronaphthalen-1-yl)-1H-indole]	33%	–	–	% (viability) at 1 μM [1]: 9 ± 1%
14 ± 7 µM	excellent affinity	Clc1ccc(C2CCCc3ccccc32)cc1Cl (centres unmarked) [AC096, 1-(3,4-dichlorophenyl)-1,2,3,4-tetrahydronaphthalene]	–	identical to that of sertraline	–	% (viability) at 1 μM [1]: 1 μM: 29 ± 3%.
16 ± 11 µM	excellent affinity	CC(=O)NC1CCC(c2cccc(I)c2)c2ccccc21 (mixture of isomers) [AC087, N-(4-(3-iodophenyl)-1,2,3,4-tetrahydronaphthalen-1-yl)acetamide]	10 μM: 33% (viability)	identical to that of sertraline	–	–
29 ± 7 µM	excellent affinity	CC(C)OC(=O)c1ccc(C2CCCc3ccccc32)cc1 (centres unmarked) [AC034, Isopropyl 4-(1,2,3,4-tetrahydronaphthalen-1-yl)benzoate]	–	identical to that of sertraline	25 ± 9 µM	–
24 ± 16 µM	excellent affinity	c1ccc2c(c1)OCCC2c1ccc2ccccc2c1 (centres unmarked) [AC069, 4-(naphthalen-2-yl)chroman]	33%	identical to that of sertraline	–	% (viability) at 1 μM [1]: 0%
28.5 ± 10 µM	excellent affinity	CC(=O)N[C@@H]1CC[C@H](c2ccc(C(=O)OC(C)C)cc2)c2ccccc21 (relative stereo) [AC056, Cis-isopropyl 4-(4-acetamido-1,2,3,4-tetrahydronaphthalen-1-yl)benzoate]	–	identical to that of sertraline	17 ± 3 µM	–
7 ± 3 µM	excellent affinity	c1ccc2c(c1)CCCC2c1ccc2ccccc2c1 (centres unmarked) [AC014, 1,2,3,4-tetrahydro-1,2′-binaphthalene]	–	identical to that of sertraline	8 ± 1 µM	expression of the p53 protein [3]: induces; induction of p53 compared to sertraline [3]: more pronounced
30 µM	excellent affinity	c1ccc2c(c1)SCCC2c1ccc2ccccc2c1 (centres unmarked) [AC085, 4-(naphthalen-2-yl)thiochroman]	–	identical to that of sertraline	25 ± 1 µM	–
59 ± 30 µM	excellent affinity	Ic1cccc(C2CCCc3ccccc32)c1 (centres unmarked) [AC041, 1-(3-iodophenyl)-1,2,3,4-tetrahydronaphthalene]	–	identical to that of sertraline	9 ± 1.2 µM	–
